Experimental data as given in US12550898B2, “Herbicide combinations comprising glufosinate and carfentrazone-ethyl” (BASF SE, priority 2020, dated 2026).

How the values were obtained:
Chenopodium album = assay: Greenhouse post-emergence herbicidal activity on Chenopodium album; type: in vivo; details: 0.654 g ai/ha
Text: (§1) For the post-emergence treatment, the test plants were first grown to 3 to 4 inch (7.6 to 10.2 cm) tall, and only then treated. Here, the herbicidal compositions were suspended or emulsified in water as distribution medium and sprayed using finely distributing nozzles.
(§2) The herbicide compounds applied in the examples were used as commercially available formulations which have been diluted with deionized water to a suitable concentration.
(§3) Carfentrazone (commercial product name: Aim) was used as an emulsifiable concentrate having an active ingredient concentration of 240 g/l. Glufosinate (commercial product name: Liberty) was used as an aqueous soluble liquid of glufosinate ammonium having an active ingredient concentration of 280 g/l. Adjuvants of ammonium sulfate (AMS) and non-ionic surfactant (NIS) were added in all treatments. AMS and NIS were AMS Liquid and Induce at rates of 1680 g/ha and 0.25% (v/v), respectively.
(§4) The test period extended over 28 days after treatment (DAT). During this time, the plants were tended and their response to the individual treatments was evaluated.
(§5) The evaluation for the damage caused by the chemical compositions was carried out using a scale from 0 to 100%, compared to the untreated control plants. Here, 0 means no damage and 100 means complete destruction of the plants.
(§6) The plants used in the greenhouse experiments belonged to the following species:
(§7) 22 ff. E=X+Y−(X·Y/100) • where X=effect in percent using carfentrazone at an application rate a; • Y=effect in percent using glufosinate at application rate b; • E=expected effect (in %) of carfentrazone plus glufosinate at application rates a+b.
(§8) The value E corresponds to the effect (plant damage or injury) which is to be expected if the activity of the individual compounds is just additive. If the observed effect is higher than the value E calculated according to Colby, a synergistic effect is present.

Echinochloa crus-galli = assay: Greenhouse post-emergence herbicidal activity on Echinochloa crus-galli; type: in vivo; details: 0.654 g ai/ha, scale 0-100, AMS + NIS added
Text: as §1, §2, §3, §4, §5, §6, §7, §8

CCOC(=O)C(Cl)Cc1cc(-n2nc(C)n(C(F)F)c2=O)c(F)cc1Cl (stereo not drawn) [Carfentrazone, carfentrazone-ethyl]
Solo Carfentrazone % activity (Chenopodium album; 7 DAT, scale 0 (no damage) to 100 (complete destruction), AMS + NIS added): 30%
Solo Carfentrazone % activity (Chenopodium album; 14 DAT, scale 0-100, AMS + NIS added): 30%
Solo Carfentrazone % activity (Chenopodium album; 21 DAT, scale 0-100, AMS + NIS added): 35%
Solo Carfentrazone % activity (Echinochloa crus-galli; 7 DAT): 30%
Solo Carfentrazone % activity (Echinochloa crus-galli; 14 DAT): 18%
Solo Carfentrazone % activity (Echinochloa crus-galli; 21 DAT): 25%
